From US20120035187A1 (priority 2009, published 2012)
Where two headings read alike, the source gives them in different places. Marks after values point to notes of the source that are not given here.

Experiments:
[1] = test system: hamsters with cerebellar ataxia; test: Concentration of glutamic acid in cerebrospinal fluid (CSF); format: in vivo, hamster; conditions: 10-weeks of age
Excerpt: Since NK-4 was confirmed to have a neurodegenerative inhibitory action in Experiment 1, hamsters with cerebellar ataxia (cerebellar ataxia is called “cerebellar A” and hamsters with cerebellar ataxia are called “hamsters with cerebellar A”, hereinafter) as a suitable model for human neurodegenerative diseases (e.g., spinal cerebellar degeneration) were subjected to examine the influence of NK-4 administration on their behaviors and brain tissues. Twenty-five hamsters with natural mutation (Nna1 inhibition), which are known to lose Purkinje's cells after three-weeks of age and then induce a spontaneous onset of kinetic motor ataxia after seven-weeks of age (see Akita K. et al., “J. Neurogenetics”, Vol. 21, pp. 19-29, 2007), had been fed at Hayashibara Biochemical Laboratories., Inc., Okayama, Japan, were randomly allocated to the test groups 1 to 5, five heads in each group, as shown in Table 2. Prior to the onset of cerebellar A (at three-weeks of age), PBS was started to administer to the hamsters in the test group 1 at a dose of 10 ml/kg/day. Prior to the onset of cerebellar A (at three-weeks of age), NK-4 was started to be administered to the hamsters in the test groups 2 to 4 at a daily dose of 20 μg/kg, 100 μg/kg or 500 μg/kg. “IGF-1, human, a product name of insulin-like growth factor, commercialized by Assaypro LLC, MO, USA. These administered ingredients were intraperitoneally administered daily to hamsters once a day up to 10-weeks of age. The degree of symptom of cerebellar A and the improvement effect on the symptom by NK-4 were evaluated with an index of improvement in motor coordination of hamsters by conducting once a week the later described rotarod test and the slant tolerance test. At the age of 10-weeks, the hamsters were subjected to counting the falling down frequency and extracted their brains, which were then histologically evaluated. In parallel, the concentration of glutamic acid in the bloods and cerebrospinal fluids (CSF) of the hamsters was assayed. As a test group 6, five normal hamsters, with the same age as the hamsters with cerebellar A used in the test groups 1 to 5, were provided and tested similarly as the hamsters with cerebellar A in such a manner of intraperitoneally administering PBS to them at a dose of 10 ml/kg/day once a day up to 10-weeks of age.
The content of glutamic acid, which is used for synthesizing gamma-amino butyric acid (GABA) as a main excitatory neurotransmitter and inhibitory neurotransmitter that regulate higher-order functions such as memory/learning in mammalian central nervous system, was assayed. In harvesting the brains from the above hamsters, they were blooded from their postcavas, followed by collecting CSF for use in the later described assay for glutamic acid concentration. […]

APP Tg mouse = test: Water maze test, APP transgenic mouse; format: in vivo; conditions: for Water maze test 1st day / Water maze test 2nd day / Water maze test 3rd day / Water maze test 4th day: time required for arriving the platform
PC12-HS cells = format: cell-based, rat

CCN1C=CC(=CC=C(C=Cc2cc[n+](CC)c3ccccc23)c2cc[n+](CC)c3ccccc23)c2ccccc21.[I-].[I-] [NK-4]
Concentration of glutamic acid in cerebrospinal fluid ([1]; 20 μg/kg body weight): 7.2 ± 0.8 µM
Concentration of glutamic acid in cerebrospinal fluid ([1]; 100 μg/kg body weight): 8.7 ± 2.6 µM
Concentration of glutamic acid in cerebrospinal fluid ([1]; 500 μg/kg body weight): 9.5 ± 2.9 µM
Water maze test 1st day (APP Tg mouse; dose 100 μg/kg body weight): 101 ± 38
Water maze test 2nd day (APP Tg mouse; dose 100 μg/kg body weight): 73 ± 13
Water maze test 3rd day (APP Tg mouse; dose 100 μg/kg body weight): 59 ± 10
Water maze test 4th day (APP Tg mouse; dose 100 μg/kg body weight): 34 ± 10
Water maze test 1st day (APP Tg mouse; dose 500 μg/kg body weight): 116 ± 3
Water maze test 2nd day (APP Tg mouse; dose 500 μg/kg body weight): 63 ± 12
Water maze test 3rd day (APP Tg mouse; dose 500 μg/kg body weight): 40 ± 7
Water maze test 4th day (APP Tg mouse; dose 500 μg/kg body weight): 27 ± 7
water maze test (in words) (APP Tg mouse; i.p. five times a week for 12 weeks): improved the dementia
Survibal percentage of cells when admixed with cytotoxic factor (%) Hydrogen peroxide (PC12-HS cells; NK-4 50 ng/ml): 50%
Survibal percentage of cells when admixed with cytotoxic factor (%) Hydrogen peroxide (PC12-HS cells; NK-4 500 ng/ml): 50%
Survibal percentage of cells when admixed with cytotoxic factor (%) Hydrogen peroxide (PC12-HS cells; NK-4 5000 ng/ml): 70 ** %
Survibal percentage of cells when admixed with cytotoxic factor (%) Hydrogen peroxide (PC12-HS cells; NK-4 50000 ng/ml): 90 ** %
concentration required for protection action against hydrogen peroxide injury (PC12-HS cells; PC12-HS cells): 5,000 ng/ml
Survibal percentage of cells when admixed with cytotoxic factor (%) Hydrogen peroxide (PC12-HS cells; PC12-HS cells, 200 μM hydrogen peroxide, 2 hours, NK-4 5 ng/ml): 51%
